The text below walks through data of ChEMBL document CHEMBL2375326, “Novel IKKβ inhibitors discovery based on the co-crystal structure by using binding-conformation-based and ligand-based method” (Eur J Med Chem, 2013).

The structures appear in SMILES notation.

Assay [1] deals with T1, Inhibitor of nuclear factor kappa-B kinase subunit beta (Homo sapiens) (UniProt O14920).
T1 sequence (whole entry): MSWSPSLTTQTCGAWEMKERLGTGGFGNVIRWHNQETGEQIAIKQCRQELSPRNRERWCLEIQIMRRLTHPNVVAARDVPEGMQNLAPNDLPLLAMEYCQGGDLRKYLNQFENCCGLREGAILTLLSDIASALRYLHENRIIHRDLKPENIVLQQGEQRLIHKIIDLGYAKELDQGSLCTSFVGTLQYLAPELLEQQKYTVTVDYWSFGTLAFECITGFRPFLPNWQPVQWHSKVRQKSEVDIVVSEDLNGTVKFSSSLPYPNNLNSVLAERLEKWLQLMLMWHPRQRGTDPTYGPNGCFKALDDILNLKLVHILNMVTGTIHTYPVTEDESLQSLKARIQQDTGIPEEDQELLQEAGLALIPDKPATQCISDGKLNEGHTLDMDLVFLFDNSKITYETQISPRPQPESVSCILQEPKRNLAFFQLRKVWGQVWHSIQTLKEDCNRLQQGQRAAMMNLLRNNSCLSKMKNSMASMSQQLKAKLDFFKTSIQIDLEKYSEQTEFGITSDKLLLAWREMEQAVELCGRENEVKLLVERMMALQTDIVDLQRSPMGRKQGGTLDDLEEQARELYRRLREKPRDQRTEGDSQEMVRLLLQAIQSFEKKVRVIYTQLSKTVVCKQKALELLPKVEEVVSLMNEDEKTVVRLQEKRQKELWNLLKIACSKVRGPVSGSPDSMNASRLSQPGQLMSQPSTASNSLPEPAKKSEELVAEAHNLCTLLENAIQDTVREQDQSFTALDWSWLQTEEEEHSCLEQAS
The assay is described as follows: Inhibition of human IKKbeta using GST-IkappaBalpha as substrate at 10 uM.

The target in assay [2] is T2, Inhibitor of nuclear factor kappa-B kinase subunit beta (Homo sapiens, UniProt O14920).
T2 sequence (O14920 whole entry): T1 sequence (whole entry)

`OC[C@@H](O)[C@@H](O)[C@H](O)c1nn(-c2ccccc2)c2nc3ccc(Cl)cc3nc12` showed an inhibition in assay [1] of 44.8%.
Consider `N#Cc1c(C2CCCNC2)cc(-c2c(O)cccc2OCc2ccccc2)nc1N` (configuration not stated), for which the IC50 in assay [2] (read-out: pIC50 (converted)) is 9.12 nM.
On the same count and under the same terms, in the case of `CNCCNS(=O)(=O)c1ccc(-c2ccnc3[nH]ccc23)cc1` it was 32.4 nM.
The same measure, in the same setting: in the case of `CNc1nc2sc(-c3ccc(N4CC=CCC4)cc3)nc2c2c1ncn2C` it was 33.1 nM; in that of `COc1c(C(N)=O)cc(-c2ccccc2)cc1-c1ccncc1`, 15800 nM.
The same measure, in the same setting: in the case of `CNc1nc2sc(-c3ccc(C(=O)NCc4cccs4)cc3)nc2c2c1ncn2C` it was 15.1 nM; in that of `NC(=O)Nc1sc(C#CC2CC2)cc1C(N)=O`, 263 nM.
As for `CNC(=O)c1cc(-c2ccc(F)cc2)cc(-c2ccc(N3CCCCC3)cc2)c1N`, the IC50 in assay [2] (read-out: pIC50 (converted)) is 15800 nM.
`CC[C@H](OC(=O)Nc1ccc(S(=O)(=O)N2CCCCC2)cc1)c1ccco1` registered an inhibition in assay [1] of 44.3%.
Consider `NC(=O)c1sc(-c2ccccc2)cc1N`, for which the IC50 in assay [2] (read-out: pIC50 (converted)) was 3240 nM.
Still for that read-out and setting: in the case of `O=S(=O)(c1ccc(-c2ccnc(Nc3cc(F)cc(F)c3)n2)cc1)N1CCNCC1` it was 117 nM; in that of `CNc1nc2[nH]c(-c3cccc(CNC(=O)CCC(N)=O)c3)cc2c2c1ncn2C`, 21.9 nM; in that of `NC(=O)c1sc(-c2ccccc2)cc1NS(=O)(=O)c1ccc(F)cc1`, 1580 nM.
With `CNc1nc2cc(-c3ccccc3)sc2n2c(C)cnc12`, the IC50 in assay [2] (read-out: pIC50 (converted)) was 21.9 nM.
As for `NC(=O)C[C@H](Nc1ncc2c(n1)-c1ccccc1OC2)C(=O)O`, the inhibition in assay [1] was determined as 44.4%.
With `CNc1nc2[nH]c(-c3cccc(OC)c3)cc2c2c1ncn2C`, the IC50 in assay [2] (read-out: pIC50 (converted)) is 7.94 nM.
In turn, `CCCCc1ccc(-n2cnc3c(=O)[nH]c(N)nc32)cc1` registered an inhibition in assay [1] of 41.5%.
Turning to `CNC(=O)c1ccc(-c2nc3c(nc(NC)c4ncn(C)c43)s2)cc1`, the IC50 in assay [2] (read-out: pIC50 (converted)) was 15.1 nM.
On the same count and under the same terms, the figure for `CCNC(=O)c1ccc(-c2nc3c(nc(NC)c4ncn(C)c43)s2)cc1` is 15.1 nM; for `CNc1nc2sc(-c3ccc(F)cc3)nc2c2c1ncn2C` it is 26.3 nM; for `C#Cc1c(C2CCNCC2)cc(-c2c(O)cccc2OCC2CC2)nc1N` it is 8.51 nM.
Still for that read-out and setting: the figure for `CNc1nc2[nH]c(-c3ccc(F)cc3)cc2c2c1ncn2C` is 42.7 nM.
As to `CNc1nc2cc(-c3cccc(CCC(=O)O)c3)sc2n2c(C)cnc12`, the IC50 in assay [2] (read-out: pIC50 (converted)) is 9.12 nM.
Take `N#Cc1c(C2CCNCC2)cc(-c2c(O)cccc2OCC2CC2)nc1N`: the inhibition in assay [1] amounted to 100%.
Take `NC(=O)c1sc(-c2ccccc2)cc1NC(=O)NCc1ccccc1`: the IC50 in assay [2] (read-out: pIC50 (converted)) was 100000 nM.
On the same count and under the same terms, in the case of `CNc1nc2[nH]c(-c3cccc(CNC(=O)CCOC)c3)cc2c2c1ncn2C` it was 12 nM; in that of `CC(=O)c1cc2cc(Nc3nccc(-c4ccc(S(=O)(=O)N5CCNCC5)cc4)n3)ccc2o1`, 25.7 nM.
`O=C(c1ccco1)c1coc2c1cc(O)c1ccccc12` returned an inhibition in assay [1] of 29.6%.
`NC(=O)Nc1cc(-c2ccccc2)sc1C(N)=O`: the IC50 in assay [2] (read-out: pIC50 (converted)) was 25.1 nM.
Still for that read-out and setting: in the case of `NC(=O)Nc1cc(-c2cccc(Cl)c2)sc1C(N)=O` it was 39.8 nM.
`Cc1ccc(-c2cc3c(c(N)c2C#N)c(=O)oc2ccccc23)o1` came in with an inhibition in assay [1] of 23.4%.
Regarding `CNc1nc2cc(-c3nccs3)sc2c2c1ncn2C`, the IC50 in assay [2] (read-out: pIC50 (converted)) is 229 nM.
The compound `Cc1sc(N)c2c(=O)oc3c4ccccc4ccc3c12` registered an inhibition in assay [1] of 64.1%. In addition, in assay [2] (read-out: IC50), the IC50 amounted to 9690 nM.
`Cc1cnc2c(NCCN)nc3cc(-c4ccc[nH]4)sc3n12`: the IC50 in assay [2] (read-out: pIC50 (converted)) is 2.51 nM.
The same measure, in the same setting: the figure for `CN(CCN)C(=O)c1ccc(Nc2nccc(-c3cc4ccccc4s3)n2)cc1` is over 100000 nM; for `CN(c1ccc(-c2ccnc3[nH]ccc23)cc1)S(C)(=O)=O` it is 316 nM; for `Cc1cnc2c(NCCN)nc3cc(-c4ncc[nH]4)sc3n12` it is 447 nM.
On the same count and under the same terms, in the case of `N#Cc1c(-c2ccc([N+](=O)[O-])cc2)cc(-c2ccccc2O)nc1N` it was 20000 nM.
Turning to `CCOC(=O)c1c(N)oc(=O)c2c1-c1ccccc1C2=O`, in assay [1], the inhibition came to 43.8%.
With `NC(=O)Nc1sc(C#Cc2cccc(NC(=O)c3ccccn3)c2)cc1C(N)=O`, the IC50 in assay [2] (read-out: pIC50 (converted)) is 100000 nM.
Still for that read-out and setting: the figure for `CNC(=O)c1cc(-c2ccc(F)cc2)cc(-c2ccc(S(C)(=O)=O)cc2)c1N` is 15800 nM; for `NC(=O)Nc1ncc(-c2ccccc2)nc1C(N)=O` it is 10000 nM.
For `CNc1nc2[nH]c(-c3cccc(C#N)c3)cc2c2c1ncn2C`, the IC50 in assay [2] (read-out: pIC50 (converted)) is 7.08 nM.
Turning to `COC(=O)c1ccc(NC(=O)COc2ccc(S(=O)(=O)NC(C)(C)C)cc2)cc1`, the inhibition in assay [1] is 23.8%.
As for `O=C1C=CC(c2ccc(-c3ccnc(Nc4ccc5ncsc5c4)n3)cc2)C=C1`, in assay [2] (read-out: pIC50 (converted)), the IC50 is 2510 nM.
`Cc1c(-c2ccc3c(c2)COC3)sc(N)c1C#N` returned an inhibition in assay [1] of 92.4%. Moreover, the IC50 in assay [2] (read-out: IC50) was found to be 2440 nM.
As for `CNc1nc2sc(-c3ccc(SC)cc3)nc2c2c1ncn2C`, in assay [2] (read-out: pIC50 (converted)), the IC50 is 28.2 nM.
In the case of `Nc1nc(=O)c2ncn(-c3cccc(-c4ccccc4)c3)c2[nH]1`, the inhibition in assay [1] stood at 47.1%.
For the compound `CCS(=O)(=O)N1CCC(COc2cc3cnccc3cc2-c2ccccc2)CC1`, the IC50 in assay [2] (read-out: pIC50 (converted)) was 20000 nM.
The same measure, in the same setting: the figure for `CNC(=O)c1sc(-c2ccccc2)cc1NC(N)=O` is 100000 nM.
The compound `CC(C)NC[C@@H](O)COc1cccc2[nH]c3ccccc3c12` came in with an inhibition in assay [1] of 36.7%.
Regarding `c1ccc(Oc2ccc(-c3ccnc(Nc4ccc5ncsc5c4)n3)cc2)cc1`, the IC50 in assay [2] (read-out: pIC50 (converted)) is 6030 nM.
For the compound `Cc1cnc2c(NCCN3CCNCC3)nc3cc(-c4ccccc4)sc3n12`, in assay [2] (read-out: pIC50 (converted)), the IC50 was 39.8 nM.
For the compound `CN(C)c1ccc(-c2cc(-c3ccccc3O)nc(N)c2C#N)cc1`, in assay [2] (read-out: pIC50 (converted)), the IC50 was 20000 nM.
`N#Cc1c(C2CCCNC2)cc(-c2c(O)cccc2OCC2CCCCC2)nc1N` (configuration not stated): the IC50 in assay [2] (read-out: pIC50 (converted)) is 26.3 nM.
